Laboratory results taken from patent US20140206748A1, “COMPOSITIONS AND METHODS RELATED TO PROSTATE CANCER” (Regents of the University of Minnesota, priority 2013, published 2014).
Where two headings read alike, the source gives them in different places.

Columns and labels:
LNCaP cells [1] = conditions: 0.1 nM DHT to 100 nM DHT
LNCaP cells [2] = test system: LNCaP cells
Protocol: Normalized gene expression data was ranked using the Signal2Noise metric and GSEA was performed against 1000 random gene set permutations.

22Rv1 cells = experiment: Growth of 22Rv1 cells under castrate conditions (crystal violet staining); format: cell-based, human; conditions: CSS; 10 μM bicalutamide or 1 μM enzalutamide
CWR-R1 cells = conditions: castrate conditions; 10 μM bicalutamide or 1 μM enzalutamide
[3] = test system: castration-resistant prostate cancer patients; conditions: Phase III trials; cited from earlier work
androgen receptor (AR) = experiment: MMTV-Luc reporter assay in CWR-R1 early and CWR-R1 late cells; format: cell-based, human; conditions: 1 nM mibolerone, 24 hours; CWR-R1 early vs CWR-R1 late cells

SMILES: C[C@]12CCC(=O)C[C@@H]1CC[C@@H]1[C@@H]2CC[C@]2(C)[C@@H](O)CC[C@@H]12 [DHT, dihydrotestosterone]
- PSA expression (LNCaP cells [1]): increased concomitant with increasing androgen concentration
- expression of M-phase genes UBE2C, CDCA5, ZWINT, and CCNA2 (LNCaP cells [1]): biphasic response
- enrichment of the "full-length AR" signature (GSEA) (LNCaP cells [2]; 1 nM DHT and 100 nM DHT datasets): positive enrichment
- enrichment of the "AR-V-specific" signature (GSEA) (LNCaP cells [2]; 1 nM DHT dataset (GSE26483)): positive enrichment
- enrichment of the "AR-V-specific" signature (GSEA) (LNCaP cells [2]; 100 nM DHT dataset (GSE7868)): strong negative enrichment

SMILES: CNC(=O)c1ccc(N2C(=S)N(c3ccc(C#N)c(C(F)(F)F)c3)C(=O)C2(C)C)cc1F [enzalutamide]
- growth of 22Rv1 cells under castrate conditions (22Rv1 cells): unaffected
- androgen-independent growth of deletion-enriched CWR-R1 cells (CWR-R1 cells): insensitive
- increase of overall survival [3]: 4.8 months

SMILES: C[C@@H]1CC2=CC(=O)CC[C@@H]2[C@H]2CC[C@@]3(C)[C@@H](CC[C@]3(C)O)[C@@H]21 [mibolerone]
- AR transactivation (MMTV-Luc) in response to androgen (androgen receptor (AR)): higher in CWR-R1 early cells than CWR-R1 late cells
